Literature values, collected in US20220000834A1, “NOVEL ADMINISTRATION METHOD” (SUMITOMO DAINIPPON PHARMA CO., LTD., priority 2019, published 2022).

B1: Sema3A: class 3 semaphorin; suppresses growth of neurite growth cone (protein, UniProt Q14563 21-771, looked up)
Semaphorin-3A: NYQNGKNNVPRLKLSYKEMLESNNVITFNGLANSSSYHTFLLDEERSRLYVGAKDHIFSFDLVNIKDFQKIVWPVSYTRRDECKWAGKDILKECANFIKVLKAYNQTHLYACGTGAFHPICTYIEIGHHPEDNIFKLENSHFENGRGKSPYDPKLLTASLLIDGELYSGTAADFMGRDFAIFRTLGHHHPIRTEQHDSRWLNDPKFISAHLISESDNPEDDKVYFFFRENAIDGEHSGKATHARIGQICKNDFGGHRSLVNKWTTFLKARLICSVPGPNGIDTHFDELQDVFLMNFKDPKNPVVYGVFTTSSNIFKGSAVCMYSMSDVRRVFLGPYAHRDGPNYQWVPYQGRVPYPRPGTCPSKTFGGFDSTKDLPDDVITFARSHPAMYNPVFPMNNRPIVIKTDVNYQFTQIVVDRVDAEDGQYDVMFIGTDVGTVLKVVSIPKETWYDLEEVLLEEMTVFREPTAISAMELSTKQQQLYIGSTAGVAQLPLHRCDIYGKACAECCLARDPYCAWDGSACSRYFPTAKRRTRRQDIRNGDPLTHCSDLHHDNHHGHSPEERIIYGVENSSTFLECSPKSQRALVYWQFQRRNEERKEEIRVDDHIIRTDQGLLLRSLQQKDSGNYLCHAVEHGFIQTLLKVTLEVIDTEHLEELLHKDDDGDGSKTKEMSNSMTPSQKVWYRDFMQLINHPNLNTMDEFCEQVWKRDRKQRRQRPGHTPGNSNKWKHLQENKKGRNRRTHEFERAPRSV

How the values were obtained:
[1] = test system: nerves in an injured part; conditions: Patent Documents 1 and 2
nerve cells = conditions: as low as

Molecule	regeneration of nerves in an injured part [1]	concentration inducing regression of nerve cells (nerve cells) [pM]
CC(=O)c1cc2c(=O)c3c(C(=O)O)c(O)c(O)cc3oc2c(C(C)=O)c1-c1coc2cc(O)c(O)c(C(=O)O)c2c1=O [compound A]	accelerates the regeneration of nerves in an injured part	–
B1	–	10
